Counter-ions that a name gives are not always drawn.
How the values were obtained:
[1] = Saturation concentration in de-ionized water; assay type: physicochemical; settings: DI water
Method: Bupivacaine hydrochloride (Sigma-Aldrich Corporation, St. Louis, Mo.) was dissolved in de-ionized (DI) water at a concentration of 40 mg/ml (saturation). A calculated amount of sodium hydroxide (1 N solution) was added to the solution and the pH of the final mixtures was adjusted to 10 to precipitate the BP base. The precipitated product was filtered, and further washed with DI water for at least three times. The precipitated product was dried at approximately 40° C. in vacuum for 24 hours.

[2] = cited from earlier work

| Structure (SMILES) | concentration in de-ionized water at saturation [1] [mg/mL] | reported solubility in water [2] |
| --- | --- | --- |
| CCCCN1CCCCC1C(=O)Nc1c(C)cccc1C (centres unmarked) [Bupivacaine hydrochloride] | 40 | – |
| CC(=O)OCC(COC(C)=O)OC(C)=O [triacetin] | – | 7.17 grams in 100 ml of water |
